Source: ChEMBL document CHEMBL5678807, “A selective jumonji H3K27 demethylase inhibitor modulates the proinflammatory macrophage response” (Nature, 2012)

Experiments:
Macrophage [1] = experiment: Antiinflammatory activity in human primary macrophages assessed as effect on LPS-induced CD70 gene expression at 30 uM measured after 2 hrs by RT-PCR array (reference value: 2415 a.u.); format: functional
Macrophage [2] = experiment: Antiinflammatory activity in human primary macrophages assessed as effect on LPS-induced GAPDH gene expression at 30 uM measured after 2 hrs by RT-PCR array (reference value: 1352294 a.u.); format: functional
Macrophage [3] = experiment: Antiinflammatory activity in human primary macrophages assessed as effect on LPS-induced IFNA2 gene expression at 30 uM measured after 2 hrs by RT-PCR array (reference value: 1099 a.u.); format: functional
Macrophage [4] = experiment: Antiinflammatory activity in human primary macrophages assessed as effect on LPS-induced IFNG gene expression at 30 uM measured after 2 hrs by RT-PCR array (reference value: 240 a.u.); format: functional
Macrophage [5] = experiment: Antiinflammatory activity in human primary macrophages assessed as effect on LPS-induced IFNK gene expression at 30 uM measured after 2 hrs by RT-PCR array (reference value: 724 a.u.); format: functional
Macrophage [6] = experiment: Antiinflammatory activity in human primary macrophages assessed as effect on LPS-induced IL11 gene expression at 30 uM measured after 2 hrs by RT-PCR array (reference value: 6 a.u.); format: functional
Macrophage [7] = experiment: Antiinflammatory activity in human primary macrophages assessed as effect on LPS-induced IL16 gene expression at 30 uM measured after 2 hrs by RT-PCR array (reference value: 8635 a.u.); format: functional
Macrophage [8] = experiment: Antiinflammatory activity in human primary macrophages assessed as effect on LPS-induced IL1A gene expression at 30 uM measured after 2 hrs by RT-PCR array (reference value: 1292761 a.u.); format: functional
Macrophage [9] = experiment: Antiinflammatory activity in human primary macrophages assessed as effect on LPS-induced IL1F6 gene expression at 30 uM measured after 2 hrs by RT-PCR array (reference value: 145 a.u.); format: functional
Macrophage [10] = experiment: Antiinflammatory activity in human primary macrophages assessed as effect on LPS-induced IL1F7 gene expression at 30 uM measured after 2 hrs by RT-PCR array (reference value: 192 a.u.); format: functional
Macrophage [11] = experiment: Antiinflammatory activity in human primary macrophages assessed as effect on LPS-induced TGFB2 gene expression at 30 uM measured after 2 hrs by RT-PCR array (reference value: 7625 a.u.); format: functional
Macrophage [12] = experiment: Antiinflammatory activity in human primary macrophages assessed as effect on LPS-induced TNFSF13 gene expression at 30 uM measured after 2 hrs by RT-PCR array (reference value: 47108 a.u.); format: functional
Macrophage [13] = experiment: Antiinflammatory activity in human primary macrophages assessed as effect on LPS-induced TNFSF14 gene expression at 30 uM measured after 2 hrs by RT-PCR array (reference value: 5963 a.u.); format: functional
Macrophage [14] = experiment: Cytotoxicity against LPS-induced human primary macrophages assessed as effect on cell viability measured after 4 hrs by WST-1 assay; format: toxicity, cell-based
[15] = molecular target: Prostaglandin G/H synthase 2 (Homo sapiens, UniProt P35354); experiment: Inhibition of human COX-2 by FLINT assay
Histone deacetylase 2 = Histone deacetylase 2 (Homo sapiens, UniProt Q92769); experiment: Inhibition of human HDAC2 by FLINT assay
Histone deacetylase 3 = Histone deacetylase 3 (Homo sapiens, UniProt O15379); experiment: Inhibition of human HDAC3 by FLINT assay
[16] = molecular target: Polyamine deacetylase HDAC10 (Homo sapiens, UniProt Q969S8); experiment: Inhibition of human HDAC10 by FLINT assay
[17] = molecular target: Lysine-specific histone demethylase 1A (Homo sapiens, UniProt O60341); experiment: Inhibition of human LSD-1 by luminescence assay
[18] = molecular target: Amine oxidase [flavin-containing] A (Homo sapiens, UniProt P21397); experiment: Inhibition of human MAOA by FLINT assay
[19] = molecular target: 5-hydroxytryptamine receptor 2A (Homo sapiens, UniProt P28223); experiment: Antagonist activity at human 5-HT2A by intracellular Ca luminescence assay; format: functional, cell-based
[20] = molecular target: T1, 5-hydroxytryptamine receptor 2C (Homo sapiens, UniProt P28335); experiment: Agonist activity at human 5-HT2C by intracellular Ca luminescence assay; format: functional, cell-based
T1 sequence (P28335 whole entry): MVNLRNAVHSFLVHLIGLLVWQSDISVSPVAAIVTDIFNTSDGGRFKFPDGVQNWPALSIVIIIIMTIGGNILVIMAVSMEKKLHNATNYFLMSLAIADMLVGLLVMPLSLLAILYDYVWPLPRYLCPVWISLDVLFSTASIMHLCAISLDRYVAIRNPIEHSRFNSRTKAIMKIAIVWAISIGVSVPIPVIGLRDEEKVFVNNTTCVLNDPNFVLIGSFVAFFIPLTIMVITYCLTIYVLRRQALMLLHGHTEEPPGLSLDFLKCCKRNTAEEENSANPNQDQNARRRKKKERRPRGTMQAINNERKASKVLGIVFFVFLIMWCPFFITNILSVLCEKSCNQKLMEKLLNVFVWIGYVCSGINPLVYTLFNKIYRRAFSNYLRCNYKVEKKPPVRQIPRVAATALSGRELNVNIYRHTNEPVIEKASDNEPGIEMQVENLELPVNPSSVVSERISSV

[21] = molecular target: Beta-2 adrenergic receptor (Homo sapiens, UniProt P07550); experiment: Antagonist activity at human beta2 adrenoceptor by TR-FRET assay; format: functional
D(2) dopamine receptor = D(2) dopamine receptor (Homo sapiens, UniProt P14416); experiment: Antagonist activity at human dopamine 2 receptor by SPA; format: functional
Histamine H1 receptor = Histamine H1 receptor (Homo sapiens, UniProt P35367); experiment: Antagonist activity at human HRH1 by intracellular Ca luminescence assay; format: functional, cell-based
[22] = molecular target: T2, Muscarinic acetylcholine receptor M1 (Homo sapiens, UniProt P11229); experiment: Antagonist activity at human CHRM1 by intracellular Ca fluorescence assay; format: functional, cell-based
T2 sequence (P11229 whole entry): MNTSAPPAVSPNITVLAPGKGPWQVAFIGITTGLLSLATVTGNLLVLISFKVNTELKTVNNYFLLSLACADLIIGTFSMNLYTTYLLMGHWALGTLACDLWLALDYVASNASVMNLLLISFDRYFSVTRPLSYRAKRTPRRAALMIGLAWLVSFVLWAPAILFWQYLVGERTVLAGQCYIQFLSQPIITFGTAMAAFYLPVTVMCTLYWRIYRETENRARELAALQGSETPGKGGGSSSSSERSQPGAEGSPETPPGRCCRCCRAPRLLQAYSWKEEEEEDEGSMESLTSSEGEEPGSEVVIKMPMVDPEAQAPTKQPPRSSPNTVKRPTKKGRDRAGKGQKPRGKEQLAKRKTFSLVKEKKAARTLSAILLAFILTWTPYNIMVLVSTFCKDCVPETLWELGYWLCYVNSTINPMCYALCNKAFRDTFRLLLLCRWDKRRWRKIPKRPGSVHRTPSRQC

[23] = molecular target: Voltage-dependent L-type calcium channel subunit alpha-1C (Homo sapiens, UniProt Q13936); experiment: Antagonist activity at human CaV1.2 (L-type) by intracellular Ca fluorescence assay; format: cell-based
[24] = molecular target: Potassium voltage-gated channel subfamily A member 5 (Homo sapiens, UniProt P22460); experiment: Blockade of human Kv1.5 by electrophysiology assay
Potassium voltage-gated channel subfamily A member 5, sequence (P22460 whole entry): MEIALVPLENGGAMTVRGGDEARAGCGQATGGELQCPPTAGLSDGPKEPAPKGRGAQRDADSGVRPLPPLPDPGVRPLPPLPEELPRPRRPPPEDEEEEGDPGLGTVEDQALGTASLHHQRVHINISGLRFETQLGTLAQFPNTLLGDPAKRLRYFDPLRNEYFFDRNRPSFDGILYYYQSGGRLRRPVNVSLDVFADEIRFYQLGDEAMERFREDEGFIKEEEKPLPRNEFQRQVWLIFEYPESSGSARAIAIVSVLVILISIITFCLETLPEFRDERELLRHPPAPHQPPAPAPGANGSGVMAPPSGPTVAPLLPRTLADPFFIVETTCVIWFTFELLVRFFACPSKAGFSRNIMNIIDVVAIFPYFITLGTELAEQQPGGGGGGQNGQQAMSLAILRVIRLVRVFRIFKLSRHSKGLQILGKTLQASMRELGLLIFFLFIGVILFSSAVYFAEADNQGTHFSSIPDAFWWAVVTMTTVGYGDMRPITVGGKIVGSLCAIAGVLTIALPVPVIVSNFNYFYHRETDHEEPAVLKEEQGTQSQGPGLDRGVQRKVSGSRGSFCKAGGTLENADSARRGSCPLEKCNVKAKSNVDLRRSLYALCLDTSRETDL

Prostaglandin G/H synthase 2, sequence (P35354 whole entry): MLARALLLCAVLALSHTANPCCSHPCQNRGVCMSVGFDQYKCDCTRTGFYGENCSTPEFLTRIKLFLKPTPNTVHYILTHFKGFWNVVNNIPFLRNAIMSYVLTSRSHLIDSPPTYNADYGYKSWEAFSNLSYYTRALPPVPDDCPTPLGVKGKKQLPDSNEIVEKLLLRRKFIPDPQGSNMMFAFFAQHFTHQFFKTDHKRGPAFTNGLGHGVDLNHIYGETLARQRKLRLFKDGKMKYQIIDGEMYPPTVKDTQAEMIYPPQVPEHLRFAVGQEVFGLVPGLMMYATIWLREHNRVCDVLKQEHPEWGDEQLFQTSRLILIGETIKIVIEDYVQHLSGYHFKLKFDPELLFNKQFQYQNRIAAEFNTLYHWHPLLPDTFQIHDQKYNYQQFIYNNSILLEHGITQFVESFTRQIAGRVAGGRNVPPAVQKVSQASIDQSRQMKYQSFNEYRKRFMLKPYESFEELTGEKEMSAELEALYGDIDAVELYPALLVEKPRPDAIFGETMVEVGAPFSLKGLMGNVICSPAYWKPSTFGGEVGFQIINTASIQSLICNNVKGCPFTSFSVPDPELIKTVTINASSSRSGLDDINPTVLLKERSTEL
Histone deacetylase 2, sequence (Q92769 whole entry): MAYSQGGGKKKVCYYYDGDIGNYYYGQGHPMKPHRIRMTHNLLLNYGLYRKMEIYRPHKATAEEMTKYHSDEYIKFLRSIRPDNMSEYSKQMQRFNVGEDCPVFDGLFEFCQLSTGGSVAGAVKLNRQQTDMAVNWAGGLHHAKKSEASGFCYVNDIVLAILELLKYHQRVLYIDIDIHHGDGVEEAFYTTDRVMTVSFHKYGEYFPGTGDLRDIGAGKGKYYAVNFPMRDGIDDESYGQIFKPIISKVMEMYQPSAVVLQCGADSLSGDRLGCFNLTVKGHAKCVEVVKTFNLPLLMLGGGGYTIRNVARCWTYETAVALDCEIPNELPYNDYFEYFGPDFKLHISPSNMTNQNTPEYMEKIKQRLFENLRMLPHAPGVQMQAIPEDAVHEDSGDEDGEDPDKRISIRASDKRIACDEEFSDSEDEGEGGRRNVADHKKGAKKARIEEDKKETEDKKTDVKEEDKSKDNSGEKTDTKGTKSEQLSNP
Histone deacetylase 3, sequence (O15379 whole entry): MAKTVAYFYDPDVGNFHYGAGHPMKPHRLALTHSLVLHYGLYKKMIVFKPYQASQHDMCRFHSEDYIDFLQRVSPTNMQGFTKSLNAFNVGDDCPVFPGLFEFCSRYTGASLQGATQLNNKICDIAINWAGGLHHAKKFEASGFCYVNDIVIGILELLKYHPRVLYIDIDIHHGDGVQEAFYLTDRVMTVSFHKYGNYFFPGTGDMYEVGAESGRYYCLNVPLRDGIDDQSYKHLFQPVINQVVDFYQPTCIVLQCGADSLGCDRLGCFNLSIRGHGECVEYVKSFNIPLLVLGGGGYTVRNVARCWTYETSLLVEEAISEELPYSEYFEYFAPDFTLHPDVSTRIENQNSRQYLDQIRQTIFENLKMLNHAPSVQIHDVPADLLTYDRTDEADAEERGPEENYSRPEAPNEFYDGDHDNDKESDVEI
Histamine H1 receptor, sequence (P35367 whole entry): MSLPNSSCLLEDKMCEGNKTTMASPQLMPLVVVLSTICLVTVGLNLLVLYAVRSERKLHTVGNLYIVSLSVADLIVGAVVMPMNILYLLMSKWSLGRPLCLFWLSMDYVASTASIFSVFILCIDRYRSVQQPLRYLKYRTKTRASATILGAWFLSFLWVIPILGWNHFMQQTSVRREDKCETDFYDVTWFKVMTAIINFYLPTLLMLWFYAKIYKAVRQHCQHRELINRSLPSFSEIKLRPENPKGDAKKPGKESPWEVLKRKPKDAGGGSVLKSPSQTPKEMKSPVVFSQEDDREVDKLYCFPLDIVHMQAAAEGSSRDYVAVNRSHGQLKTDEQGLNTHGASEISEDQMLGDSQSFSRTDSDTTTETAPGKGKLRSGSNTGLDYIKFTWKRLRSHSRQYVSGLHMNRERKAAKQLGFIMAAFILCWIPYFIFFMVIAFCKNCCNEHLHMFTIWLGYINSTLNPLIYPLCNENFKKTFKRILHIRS
Amine oxidase [flavin-containing] A, sequence (P21397 whole entry): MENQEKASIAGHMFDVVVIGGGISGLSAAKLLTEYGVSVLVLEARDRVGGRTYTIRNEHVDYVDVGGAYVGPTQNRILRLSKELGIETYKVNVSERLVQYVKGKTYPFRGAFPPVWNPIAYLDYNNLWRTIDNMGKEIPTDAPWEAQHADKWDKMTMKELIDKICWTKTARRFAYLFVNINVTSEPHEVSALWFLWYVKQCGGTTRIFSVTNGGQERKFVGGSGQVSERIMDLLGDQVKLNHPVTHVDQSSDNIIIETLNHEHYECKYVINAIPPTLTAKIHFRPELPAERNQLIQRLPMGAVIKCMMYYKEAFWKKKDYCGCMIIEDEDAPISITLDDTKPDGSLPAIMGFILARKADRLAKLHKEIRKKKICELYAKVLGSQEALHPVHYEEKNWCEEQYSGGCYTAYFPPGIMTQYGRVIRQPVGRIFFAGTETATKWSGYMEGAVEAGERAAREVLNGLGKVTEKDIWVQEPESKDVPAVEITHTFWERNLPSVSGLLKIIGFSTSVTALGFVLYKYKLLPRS
5-hydroxytryptamine receptor 2A, sequence (P28223 whole entry): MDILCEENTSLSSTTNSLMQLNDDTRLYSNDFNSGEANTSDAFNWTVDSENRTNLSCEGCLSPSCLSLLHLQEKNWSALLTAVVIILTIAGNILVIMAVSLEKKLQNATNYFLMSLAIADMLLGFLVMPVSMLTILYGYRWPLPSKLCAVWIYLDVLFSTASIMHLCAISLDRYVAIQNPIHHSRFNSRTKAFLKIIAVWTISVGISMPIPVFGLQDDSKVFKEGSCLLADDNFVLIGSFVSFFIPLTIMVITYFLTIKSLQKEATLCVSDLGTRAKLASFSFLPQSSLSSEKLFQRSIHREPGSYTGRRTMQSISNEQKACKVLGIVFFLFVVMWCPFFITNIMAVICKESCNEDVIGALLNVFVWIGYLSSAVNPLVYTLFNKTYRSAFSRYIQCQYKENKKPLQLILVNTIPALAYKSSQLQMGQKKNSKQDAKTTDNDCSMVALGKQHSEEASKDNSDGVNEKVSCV
Beta-2 adrenergic receptor, sequence (P07550 whole entry): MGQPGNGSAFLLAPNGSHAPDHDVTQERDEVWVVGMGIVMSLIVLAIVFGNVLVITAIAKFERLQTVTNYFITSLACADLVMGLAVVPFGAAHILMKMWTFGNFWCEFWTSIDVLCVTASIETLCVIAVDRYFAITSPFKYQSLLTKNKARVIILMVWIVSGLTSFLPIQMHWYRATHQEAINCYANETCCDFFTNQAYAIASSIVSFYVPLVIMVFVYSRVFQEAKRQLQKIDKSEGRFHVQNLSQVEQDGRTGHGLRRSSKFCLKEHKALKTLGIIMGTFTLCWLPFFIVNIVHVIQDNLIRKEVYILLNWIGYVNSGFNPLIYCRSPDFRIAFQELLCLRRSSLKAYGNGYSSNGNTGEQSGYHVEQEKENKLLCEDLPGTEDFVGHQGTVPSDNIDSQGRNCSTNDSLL
Polyamine deacetylase HDAC10, sequence (Q969S8 whole entry): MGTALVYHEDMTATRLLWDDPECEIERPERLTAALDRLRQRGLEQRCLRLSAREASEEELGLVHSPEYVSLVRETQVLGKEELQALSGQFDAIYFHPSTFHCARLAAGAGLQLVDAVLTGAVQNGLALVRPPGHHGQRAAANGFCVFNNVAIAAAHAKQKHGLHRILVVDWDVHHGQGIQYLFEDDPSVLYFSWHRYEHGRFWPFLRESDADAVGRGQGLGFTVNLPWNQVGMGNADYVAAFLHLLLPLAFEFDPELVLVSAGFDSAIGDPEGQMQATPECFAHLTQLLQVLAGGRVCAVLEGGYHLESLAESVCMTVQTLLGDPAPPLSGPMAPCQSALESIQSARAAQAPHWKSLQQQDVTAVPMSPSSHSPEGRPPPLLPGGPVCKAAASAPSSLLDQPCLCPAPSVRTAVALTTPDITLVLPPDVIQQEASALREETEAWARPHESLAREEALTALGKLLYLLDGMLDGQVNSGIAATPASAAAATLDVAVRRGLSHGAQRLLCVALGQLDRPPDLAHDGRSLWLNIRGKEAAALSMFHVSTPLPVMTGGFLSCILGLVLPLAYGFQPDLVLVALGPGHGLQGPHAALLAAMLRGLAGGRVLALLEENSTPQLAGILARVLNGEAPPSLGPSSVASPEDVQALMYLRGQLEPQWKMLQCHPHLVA

Compound `CCOC(=O)CCNc1cc(N2CCc3ccccc3CC2)nc(-c2ccccn2)n1` has an Activity (Macrophage [1]) of 334 a.u, an Activity (Macrophage [2]) of 1352294 a.u and an Activity (Macrophage [3]) of 641 a.u. It also gave an Activity (Macrophage [4]) of 298 a.u, an Activity (Macrophage [5]) of 3510 a.u and an Activity (Macrophage [6]) of 403 a.u. It also gave an Activity (Macrophage [7]) of 6284 a.u, an Activity (Macrophage [8]) of 170309 a.u and an Activity (Macrophage [9]) of 1 a.u. For the same compound, the Activity (Macrophage [10]) was 360 a.u, the Activity (Macrophage [11]) was 3422 a.u and the Activity (Macrophage [12]) was 43866 a.u. For the same compound, the Activity (Macrophage [13]) was 9678 a.u and the Activity (Macrophage [14]) was “Non-Toxic”.

`O=C(O)CCNc1cc(N2CCc3ccccc3CC2)nc(-c2ccccn2)n1` showed an XC50 [15] greater than 63 µM, an XC50 (Histone deacetylase 2) greater than 300 µM and an XC50 (Histone deacetylase 3) greater than 300 µM. The XC50 [16] was greater than 300 µM, the XC50 [17] was greater than 125 µM and the XC50 [18] was 50 µM. For the same compound, the XC50 [19] was greater than 40 µM, the XC50 [20] was greater than 40 µM and the XC50 [21] was greater than 32 µM. For the same compound, the XC50 (D(2) dopamine receptor) was greater than 100 µM, the XC50 (Histamine H1 receptor) was greater than 40 µM and the XC50 [22] was greater than 16 µM. The XC50 [23] was greater than 16 µM, the XC50 [24] was greater than 50 µM and the Activity (Macrophage [14]) was “Non-Toxic”.

In the case of `O=C(O)CCNc1cc(N2CCc3ccccc3CC2)nc(-c2cccnc2)n1`, the XC50 [15] is reported as greater than 63 µM, the XC50 (Histone deacetylase 2) is reported as greater than 300 µM and the XC50 (Histone deacetylase 3) is reported as greater than 300 µM. For the same compound, the XC50 [16] was greater than 300 µM, the XC50 [17] was greater than 125 µM and the XC50 [18] was greater than 100 µM. For the same compound, the XC50 [19] was greater than 40 µM, the XC50 [20] was greater than 40 µM and the XC50 [21] was greater than 32 µM. For the same compound, the XC50 (D(2) dopamine receptor) was greater than 100 µM, the XC50 (Histamine H1 receptor) was greater than 40 µM and the XC50 [22] was greater than 16 µM. The XC50 [23] was greater than 16 µM, the XC50 [24] was greater than 50 µM and the Activity (Macrophage [14]) was “Non-Toxic”.

`CCOC(=O)CCNc1cc(N2CCc3ccccc3CC2)nc(-c2cccnc2)n1` was tested, and the Activity (Macrophage [1]) was 1003 a.u, the Activity (Macrophage [2]) was 1352294 a.u and the Activity (Macrophage [3]) was 65 a.u. It also gave an Activity (Macrophage [4]) of 60 a.u, an Activity (Macrophage [5]) of 339 a.u and an Activity (Macrophage [6]) of 32 a.u. For the same compound, the Activity (Macrophage [7]) was 4600 a.u, the Activity (Macrophage [8]) was 815450 a.u and the Activity (Macrophage [9]) was 121 a.u. For the same compound, the Activity (Macrophage [10]) was 33 a.u, the Activity (Macrophage [11]) was 4816 a.u and the Activity (Macrophage [12]) was 39565 a.u. For the same compound, the Activity (Macrophage [13]) was 5331 a.u and the Activity (Macrophage [14]) was “Non-Toxic”.
